Laboratory results from patent publication US10500301B2, “Agent for salting out active principles in dressings containing at least one of fatty substance” (URGO RECHERCHE INNOVATION ET DEVELOPPEMENT, priority 2007, dated 2019).

Tests used:
[1] = Release of the active substance from interface dressings into physiological saline solution, HPLC assay; format: physicochemical; settings: Sepinov EMT 10 versus Montanox 80 as releasing agent in interface dressings, irrespective of the active substance
Method: In the case of interface dressings, prepared from the masses of examples 1 to 4 and 13 to 18, samples of 25 cm^2 of dressing (cut with a calibrated punch and precisely weighed) were introduced into an Erlenmeyer flask containing 10 ml of physiological saline solution. The glassware, hermetically sealed, was placed in an incubator at 37° C. for 24 h. The supernatant was removed and filtered. The amount of active substance was assayed by HPLC (high performance liquid chromatography) according to the methods described below.
The following conditions for assaying by high performance liquid chromatography (HPLC) were used: […]
The detection threshold for the potassium sucrose octasulfate was 0.06 mg/ml. When no peak was detected, the result was increased by the detection threshold. […]
The detection threshold for the silver sulfadiazine was 0.0006 mg/ml. When no peak was detected, the result was increased by the detection threshold.
• A calibration straight line was plotted using the calibration points, and the equation of the straight line y=ax+b (r^2>0.999), in which y=surface area under the peak x=concentration of the standard (in mg/ml) r^2=determination coefficient, was calculated. • The content of potassium sucrose octasulfate or silver sulfadiazine (x) was calculated. […]
The percentage of release of the active substance is calculated according to the following formula: […]

[2] = test system: normal human dermal fibroblasts (NHDF) R9PF2; experiment: Effect of dressings on fibroblast cultures (MTT test, tritiated thymidine incorporation); format: cell-based; settings: releasing agent in dressings
Method: • Type: pool of normal human dermal fibroblasts (NHDF) R9PF2 • Culture: 37° C., 5% CO2 Culture Medium: • DMEM (Dulbecco's Modified Eagle Medium, Invitrogen 21969035) • 2 mM L-glutamine (Invitrogen 25030024) • 50 UI/ml penicillin, 50 μg/ml streptomycin (Invitrogen 15070063) • 10% fetal calf serum (v/v, Invitrogen 10270098). Products Tested:
Dressings according to examples 1 and 23 were cut to the size of the wells and tested.
The fibroblasts were seeded at confluence in a 12-well plate.
Pieces of each dressing were cut to a size of 1.4 cm×1.4 cm (i.e. 1.96 cm^2), applied to the surface of the fibroblasts and held in place using a plug. A control without dressing but with a plug, and also a control without dressing and without plug were carried out.
The cells were then incubated for 48 hours, 96 hours and 168 hours (7 days) at 37° C. and 5% CO2. For each incubation time, the metabolic activity was measured using a standard MTT test, which accounts for the mitochondrial dehydrogenases activity. Tritiated thymidine ([methyl-3H]-thymidine, Amersham TRK 686 2.5 μCi/ml final concentration) was added during the last 24 hours of incubation, and then the DNA of the cells of the cell layers was extracted and purified and the radioactivity incorporated into the DNA was counted using a scintillation counter.
All experiments were carried out in triplicate. […]

Q: Which results are given for polysorbate 80?
A: Release of the active substance with the releasing agent, comparison in words [1]: substantially the same release of the active substance; Effect on fibroblasts (toxicity / proliferation), in words [2]: exhibits toxicity with respect to these cells
